As usually defined, the DC50 is the midpoint of the concentration-degradation curve.

Experimental findings from patent US20240018158A1, “BRM TARGETING COMPOUNDS AND ASSOCIATED METHODS OF USE” (Prelude Therapeutics Incorporated, priority 2020, published 2024) are described below.

Each structure is given as a SMILES string.

The target in this test is SMARCA2 (Homo sapiens (Human), UniProt P51531). Kind of test: SMARCA2 HiBiT degradation assay in HEK293T cells. The conditions noted are these: 293T HiBiT assay, 24 h; for DC50: read-out: DC50 (SM2-293T) SMARCA2 degradation potency; for Dmax: HEK-293T, read-out: Dmax % (SM2-293T) maximum SMARCA2 degradation within the concentrations tested. It is filed as cell-based. The method, then:
HiBiT peptide knock-in of SMARCA2 in LgBiT expressing HEK293T cells was performed by CRISPR-mediated tagging system as described Promega. The homozygous HiBiT knock-in on c-terminus SMARCA2 was confirmed by sanger sequence. SMARCA2-HiBiT knock-in Hela monoclonal cell (CS302366) and SMARCA4-HiBiT knock-in Hela monoclonal cell (CS3023226) were purchased from Promega. The heterozygous HiBiT-knock-in was confirmed by sanger sequence in both SMARCA2-HiBiT and SMARCA4-HiBiT monoclonal cells. Compounds were prepared in a low dead volume plate at 3-fold serial dilution, and then transferred 25 nL/well into a 384 well plate (Corning: #356661) by Agilent Bravo liquid dispenser. SMARCA2-HiBiT monoclonal HEK293T cells were added at 5,000/well/25 uL into the compound containing 384 well plate. After 24 h incubation, 25 uL/well of Nano-Glo HiBiT Lytic detection buffer (Promega: N3050) was added to the wells and incubate for 10 min on a shaker, centrifuged for 5 min, and then RLU was detected on a microplate reader (Envision, PerkinElmer). The RLU ratio values are normalized to percent inhibition as follows: % inhibition=((HC−LC)−(compound−LC))/(HC−LC))*100, where HC=high control=mean signal of DMSO only; LC=low control=mean signal of 100% inhibition of RLU by 1 μM PRT1001728. An 11-point dose response curve for each compound will be generated using normalized % inhibition to determine IC50 values based on the equation: Y=Bottom+((Top-Bottom)/(1+((IC50/X)^Slope))), where Y is the % inhibition in the presence of X inhibitor concentration; Top=the top plateau of the curve; Bottom=the bottom plateau of the curve; Slope=Hill coefficient; DC50=concentration of compound with 50% degradation in relation to top/high control. DC50 values were determined by using XLfit Model 205.
On the technique in general: The HiBiT peptide binds its large partner to form an active luciferase.

SMARCA2, sequence (P51531 whole entry): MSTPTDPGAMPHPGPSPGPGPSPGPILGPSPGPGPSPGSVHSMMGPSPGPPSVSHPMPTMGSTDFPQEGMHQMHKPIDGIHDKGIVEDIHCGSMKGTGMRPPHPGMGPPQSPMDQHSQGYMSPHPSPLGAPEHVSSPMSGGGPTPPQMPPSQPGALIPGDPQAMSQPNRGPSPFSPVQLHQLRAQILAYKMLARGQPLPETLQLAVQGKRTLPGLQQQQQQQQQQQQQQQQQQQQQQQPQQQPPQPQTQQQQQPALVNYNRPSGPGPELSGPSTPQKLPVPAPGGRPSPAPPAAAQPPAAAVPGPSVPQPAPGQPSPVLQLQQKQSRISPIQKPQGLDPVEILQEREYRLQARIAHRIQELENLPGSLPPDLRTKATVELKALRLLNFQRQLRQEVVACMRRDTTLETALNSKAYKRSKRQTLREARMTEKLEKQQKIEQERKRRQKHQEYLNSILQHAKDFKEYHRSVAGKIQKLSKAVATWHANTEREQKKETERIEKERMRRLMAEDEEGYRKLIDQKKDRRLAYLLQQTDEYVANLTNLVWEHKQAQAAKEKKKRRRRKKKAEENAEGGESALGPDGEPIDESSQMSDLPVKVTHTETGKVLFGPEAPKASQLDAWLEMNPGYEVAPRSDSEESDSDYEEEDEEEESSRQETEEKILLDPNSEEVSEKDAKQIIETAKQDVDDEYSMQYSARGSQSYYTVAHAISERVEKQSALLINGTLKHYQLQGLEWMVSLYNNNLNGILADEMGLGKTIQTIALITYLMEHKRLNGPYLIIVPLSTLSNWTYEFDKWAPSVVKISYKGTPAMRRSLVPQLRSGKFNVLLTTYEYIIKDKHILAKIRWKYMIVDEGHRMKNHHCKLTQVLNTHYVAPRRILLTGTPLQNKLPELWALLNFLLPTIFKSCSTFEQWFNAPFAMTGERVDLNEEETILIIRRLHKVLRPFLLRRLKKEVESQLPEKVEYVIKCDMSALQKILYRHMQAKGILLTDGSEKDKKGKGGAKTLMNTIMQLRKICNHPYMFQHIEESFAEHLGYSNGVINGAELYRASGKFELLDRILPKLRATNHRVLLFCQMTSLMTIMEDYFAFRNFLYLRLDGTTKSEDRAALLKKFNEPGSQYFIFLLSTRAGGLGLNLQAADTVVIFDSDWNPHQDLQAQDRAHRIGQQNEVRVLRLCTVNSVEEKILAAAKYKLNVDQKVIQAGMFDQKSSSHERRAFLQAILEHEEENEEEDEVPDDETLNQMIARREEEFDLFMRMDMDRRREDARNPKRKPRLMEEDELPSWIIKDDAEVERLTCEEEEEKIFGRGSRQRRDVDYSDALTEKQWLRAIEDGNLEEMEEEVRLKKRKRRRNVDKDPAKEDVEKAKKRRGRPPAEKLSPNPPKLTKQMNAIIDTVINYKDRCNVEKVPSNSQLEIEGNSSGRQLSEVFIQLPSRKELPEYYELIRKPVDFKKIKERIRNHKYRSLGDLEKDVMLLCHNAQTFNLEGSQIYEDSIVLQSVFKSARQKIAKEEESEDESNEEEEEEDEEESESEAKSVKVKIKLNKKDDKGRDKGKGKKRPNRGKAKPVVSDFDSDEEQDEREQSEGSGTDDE

For the compound `Cc1ncsc1-c1ccc([C@H](C)NC(=O)[C@@H]2C[C@@H](O)CN2C(=O)[C@@H](c2cc(CN3CCC(N4CCN5c6cc(-c7ccccc7O)nnc6NC[C@H]5C4)CC3)no2)C(C)C)cc1` [Example 39, (2S,4R)-4-hydroxy-1-((R)-2-(3-((4-((S)-2-(2-hydroxyphenyl)-5,6,6a,7,9,10-hexahydro-8H-pyrazino[1′,2′:4,5]pyrazino[2,3-c]pyridazin-8-yl)piperidin-1-yl)methyl)isoxazol-5-yl)-3-methylbutanoyl)-N-((S)-1-(4-(4-methylthiazol-5-yl)phenyl)ethyl)pyrrolidine-2-carboxamide], the DC50 is less than 100 nM and the Dmax is greater than 75%.
The like results for `COc1cc(-c2scnc2C)ccc1[C@H](C)NC(=O)[C@@H]1C[C@@H](O)CN1C(=O)[C@@H](c1cc(OCCN2CCC(CN3CCN4c5cc(-c6ccccc6O)nnc5NC[C@H]4C3)CC2)no1)C(C)C` [Example 40, (2S,4R)-4-hydroxy-1-((R)-2-(3-(2-(4-(((S)-2-(2-hydroxyphenyl)-5,6,6a,7,9,10-hexahydro-8H-pyrazino[1′,2′:4,5]pyrazino[2,3-c]pyridazin-8-yl)methyl)piperidin-1-yl)ethoxy)isoxazol-5-yl)-3-methylbutanoyl)-N-((S)-1-(2-methoxy-4-(4-methylthiazol-5-yl)phenyl)ethyl)pyrrolidine-2-carboxamide] were, in that order, less than 100 nM and greater than 75%.
In the case of `Cc1ncsc1-c1ccc([C@H](C)NC(=O)[C@@H]2C[C@@H](O)CN2C(=O)[C@@H](c2cc(OCCN3CCC(N4CCC(N5CCN6c7cc(-c8ccccc8O)nnc7NC[C@H]6C5)CC4)CC3)no2)C(C)C)cc1` [Example 44, (2S,4R)-4-hydroxy-1-((R)-2-(3-(2-(4-((S)-2-(2-hydroxyphenyl)-5,6,6a,7,9,10-hexahydro-8H-pyrazino[1′,2′:4,5]pyrazino[2,3-c]pyridazin-8-yl)-[1,4′-bipiperidin]-1-yl)ethoxy)isoxazol-5-yl)-3-methylbutanoyl)-N-((S)-1-(4-(4-methylthiazol-5-yl)phenyl)ethyl)pyrrolidine-2-carboxamide], the DC50 is less than 100 nM and the Dmax was greater than 75%.
Regarding `Cc1ncsc1-c1ccc([C@H](C)NC(=O)[C@@H]2C[C@@H](OC(=O)C(C)C)CN2C(=O)[C@@H](c2cc(OCCN3CCC(CN4CCN5c6cc(-c7ccccc7O)nnc6NC[C@H]5C4)CC3)no2)C(C)C)cc1` [Example 52, (3R,5S)-1-((R)-2-(3-(2-(4-(((S)-2-(2-hydroxyphenyl)-5,6,6a,7,9,10-hexahydro-8H-pyrazino[1′,2′:4,5]pyrazino[2,3-c]pyridazin-8-yl)methyl)piperidin-1-yl)ethoxy)isoxazol-5-yl)-3-methylbutanoyl)-5-(((S)-1-(4-(4-methylthiazol-5-yl)phenyl)ethyl)carbamoyl)pyrrolidin-3-yl isobutyrate], the DC50 is less than 100 nM and the Dmax is greater than 75%.
With `Cc1ncsc1-c1ccc([C@H](C)NC(=O)[C@@H]2C[C@@H](O)CN2C(=O)C(c2cc(COC(=O)N3CCC(N4CCN5c6cc(-c7ccccc7O)nnc6NC[C@H]5C4)CC3)no2)C(C)C)cc1` (stereo partly drawn) [Example 53, (5-(1-((2S,4R)-4-hydroxy-2-(((S)-1-(4-(4-methylthiazol-5-yl)phenyl)ethyl)carbamoyl)pyrrolidin-1-yl)-3-methyl-1-oxobutan-2-yl)isoxazol-3-yl)methyl 4-((S)-2-(2-hydroxyphenyl)-5,6,6a,7,9,10-hexahydro-8H-pyrazino[1′,2′:4,5]pyrazino[2,3-c]pyridazin-8-yl)piperidine-1-carboxylate], the DC50 is less than 100 nM and the Dmax is greater than 75%.
As to `Cc1ncsc1-c1ccc([C@H](C)NC(=O)[C@@H]2C[C@@H](O)CN2C(=O)[C@@H](NC(=O)COCCN2CCN3c4cc(-c5ccccc5O)nnc4NCC3C2)C(C)(C)C)cc1` (stereo partly drawn) [Example 65, (2S,4R)-4-hydroxy-1-((2S)-2-(2-(2-(2-(2-hydroxyphenyl)-5,6,6a,7,9,10-hexahydro-8H-pyrazino[1′,2′:4,5]pyrazino[2,3-c]pyridazin-8-yl)ethoxy)acetamido)-3,3-dimethylbutanoyl)-N-((S)-1-(4-(4-methylthiazol-5-yl)phenyl)ethyl)pyrrolidine-2-carboxamide], the DC50 is 100 to 1000 nM and the Dmax is greater than 75%.
Regarding `Cc1ncsc1-c1ccc([C@H](C)NC(=O)[C@@H]2C[C@@H](O)CN2C(=O)[C@@H](NC(=O)CN2CC(N3CCN4c5cc(-c6ccccc6O)nnc5NCC4C3)C2)C(C)(C)C)cc1` (stereo partly drawn) [Example 66, (2S,4R)-4-hydroxy-1-((2S)-2-(2-(3-(2-(2-hydroxyphenyl)-5,6,6a,7,9,10-hexahydro-8H-pyrazino[1′,2′:4,5]pyrazino[2,3-c]pyridazin-8-yl)azetidin-1-yl)acetamido)-3,3-dimethylbutanoyl)-N-((S)-1-(4-(4-methylthiazol-5-yl)phenyl)ethyl)pyrrolidine-2-carboxamide], the DC50 lay within 100 to 1000 nM and the Dmax was greater than 75%.
As to `Cc1ncsc1-c1ccc([C@H](C)NC(=O)[C@@H]2C[C@@H](O)CN2C(=O)[C@@H](c2cc(OC(C)CN3CCCC(CN4CCN5c6cc(-c7ccccc7O)nnc6NC[C@H]5C4)CC3)no2)C(C)C)cc1` (stereo partly drawn) [Example 67, (2S,4R)-4-hydroxy-1-((2R)-2-(3-((1-(4-(((S)-2-(2-hydroxyphenyl)-5,6,6a,7,9,10-hexahydro-8H-pyrazino[1′,2′:4,5]pyrazino[2,3-c]pyridazin-8-yl)methyl)azepan-1-yl)propan-2-yl)oxy)isoxazol-5-yl)-3-methylbutanoyl)-N-((S)-1-(4-(4-methylthiazol-5-yl)phenyl)ethyl)pyrrolidine-2-carboxamide], the DC50 was less than 100 nM and the Dmax was greater than 75%.
For `Cc1ncsc1-c1ccc([C@H](C)NC(=O)[C@@H]2C[C@@H](O)CN2C(=O)[C@@H](c2cc(CCCN3CCN4c5cc(-c6ccccc6O)nnc5NCC4C3)no2)C(C)C)cc1` (stereo partly drawn) [Example 74, (2S,4R)-4-hydroxy-1-((2R)-2-(3-(3-(2-(2-hydroxyphenyl)-5,6,6a,7,9,10-hexahydro-8H-pyrazino[1′,2′:4,5]pyrazino[2,3-c]pyridazin-8-yl)propyl)isoxazol-5-yl)-3-methylbutanoyl)-N-((S)-1-(4-(4-methylthiazol-5-yl)phenyl)ethyl)pyrrolidine-2-carboxamide] the same measures were less than 100 nM and greater than 75%.
The like results for `Cc1ncsc1-c1ccc([C@H](C)NC(=O)[C@@H]2C[C@@H](O)CN2C(=O)C(c2cc(COc3cc(N4CCN5c6cc(-c7ccccc7O)nnc6NCC5C4)ccn3)no2)C(C)C)cc1` (stereo partly drawn) [Example 75, (2S,4R)-4-hydroxy-1-(2-(3-(((4-(2-(2-hydroxyphenyl)-5,6,6a,7,9,10-hexahydro-8H-pyrazino[1′,2′:4,5]pyrazino[2,3-c]pyridazin-8-yl)pyridin-2-yl)oxy)methyl)isoxazol-5-yl)-3-methylbutanoyl)N-((S)-1-(4-(4-methylthiazol-5-yl)phenyl)ethyl)pyrrolidine-2-carboxamide] were, in that order, 100 to 1000 nM and greater than 75%.
